Data on eight compounds can be found in ChEMBL document CHEMBL1158138, “Cucurbitane triterpenes from the fruiting bodies and cultivated mycelia of Leucopaxillus gentianeus” (J Nat Prod, 2006).

As usually defined, the IC50 is the concentration that inhibits the measured activity by half. A high value points to weaker potency.

Converted amounts (≈) assume the structure as drawn. The source made the active and inactive calls. No cut-off for these calls is given here.

The test system of the first experiment is NCI-H460. In words: Antiproliferative activity against human NCI-H460 cells after 72 hrs. The class given is functional, cell-based. Conditions: NCI-H460, 72 h.
For `CC(=O)OC(C)(C)/C=C/C(=O)[C@@](C)(O)[C@H]1CC[C@@]2(C)[C@@H]3CC=C4[C@@H](C[C@H](O)C(=O)C4(C)C)[C@]3(C)C(=O)C[C@]12C` [16-DEOXYCUCURBITACIN B], the IC50 worked out at 0.06 µg/mL (≈ 0.111 µM).

Consider `CC(=O)O[C@H](C[C@@H](OC(C)=O)C(C)(C)O)[C@@H](C)[C@H]1[C@H](O)C[C@@]2(C)[C@@H]3CC=C4[C@@H](CCC(=O)C4(C)C)[C@]3(C)C(=O)C[C@]12C` [18-DEOXYLEUCOPAXILLONE A], for which the IC50 is 10.6 µg/mL (≈ 18 µM).

The compound `CC(=O)OC(C)(C)/C=C/C(=O)[C@](C)(O)[C@H]1[C@H](O)C[C@@]2(C)[C@@H]3CC=C4[C@H](C[C@H](O)C(=O)C4(C)C)[C@]3(C)C(=O)C[C@]12C` [CUCURBITACIN B] gave an IC50 of 0.011 µg/mL (≈ 0.0197 µM).

In turn, `CC(C)(O)/C=C/C(=O)[C@](C)(O)[C@H]1[C@H](O)C[C@@]2(C)[C@@H]3CC=C4[C@@H](C[C@H](O)C(=O)C4(C)C)[C@]3(C)C(=O)C[C@]12C` [CUCURBITACIN D] had an IC50 of 0.12 µg/mL (≈ 0.232 µM). This IC50 is about 11-fold higher than that of the compound before.

Consider `CC(=O)O[C@H](C[C@@H](OC(C)=O)C(C)(C)O)[C@@H](C)[C@H]1CC[C@@]2(C)[C@@H]3CC=C4[C@@H](CCC(=O)C4(C)C)[C@]3(C)CC[C@]12CO` [LEUCOPAXILLONE A], for which the midpoint of inhibition, the IC50, lay at 3.5 µg/mL (≈ 6.09 µM).

`CC(=O)O[C@H](C[C@@H](OC(C)=O)C(C)(C)O)[C@@H](C)[C@H]1CC[C@@]2(C)[C@@H]3CC=C4[C@@H](CCC(=O)C4(C)C)[C@]3(C)[C@]3(O)C[C@]12CO3` [LEUCOPAXILLONE B] had an IC50 of 0.3 µg/mL (≈ 0.51 µM).

Take `CC[C@@]1(O)C(=O)OCc2c1cc1n(c2=O)Cc2cc3c(CN(C)C)c(O)ccc3nc2-1` [TOPOTECAN]: the 50% inhibitory concentration (IC50) was 0.008 µg/mL (≈ 0.019 µM).

The next experiment deals with T1, DNA topoisomerase 1 (Homo sapiens) (UniProt P11387).
T1 sequence (whole entry): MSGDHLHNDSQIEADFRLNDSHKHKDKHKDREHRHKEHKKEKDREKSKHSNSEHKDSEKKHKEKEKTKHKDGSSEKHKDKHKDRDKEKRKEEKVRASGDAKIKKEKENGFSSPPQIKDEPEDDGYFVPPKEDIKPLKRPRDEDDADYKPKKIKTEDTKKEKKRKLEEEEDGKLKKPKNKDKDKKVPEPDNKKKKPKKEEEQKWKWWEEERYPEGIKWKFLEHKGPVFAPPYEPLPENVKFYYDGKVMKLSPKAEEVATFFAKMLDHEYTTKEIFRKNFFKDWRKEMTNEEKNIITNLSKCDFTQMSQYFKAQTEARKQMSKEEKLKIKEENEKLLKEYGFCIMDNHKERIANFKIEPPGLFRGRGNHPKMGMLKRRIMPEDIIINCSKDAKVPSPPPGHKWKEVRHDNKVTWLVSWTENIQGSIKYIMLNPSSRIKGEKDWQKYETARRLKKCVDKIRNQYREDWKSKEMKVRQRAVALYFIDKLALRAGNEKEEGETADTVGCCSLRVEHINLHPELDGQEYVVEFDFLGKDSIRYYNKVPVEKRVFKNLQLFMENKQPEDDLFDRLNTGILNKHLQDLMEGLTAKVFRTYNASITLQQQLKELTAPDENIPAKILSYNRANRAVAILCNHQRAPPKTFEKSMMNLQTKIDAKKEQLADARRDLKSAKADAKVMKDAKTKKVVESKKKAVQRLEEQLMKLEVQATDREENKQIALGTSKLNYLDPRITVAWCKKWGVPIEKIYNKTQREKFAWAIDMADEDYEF
In words: Inhibition of topoisomerase 1-mediated SV40 DNA cleavage at 1 to 50 uM by gel electrophoresis.
Settings: not given
With `CCc1c2c(nc3ccc(O)cc13)-c1cc3c(c(=O)n1C2)COC(=O)[C@]3(O)CC`, the outcome was Active.

For the compound `CC(=O)OC(C)(C)/C=C/C(=O)[C@](C)(O)[C@H]1[C@H](O)C[C@@]2(C)[C@@H]3CC=C4[C@H](C[C@H](O)C(=O)C4(C)C)[C@]3(C)C(=O)C[C@]12C` [CUCURBITACIN B], the outcome was Active.
